Entries after “also recorded” stand apart in the source; their conditions may differ. Where a SMILES comes first, the peptide text is derived from it. The star is where a group is joined. Cbz = O=C(OCc1ccccc1)*
Columns and labels:
Type in all cases: cell-based, human
[1] = tested on: PSA and TMPRSS2 transcripts; experiment: qPCR of PSA and TMPRSS2 transcripts to verify efficacy of p300 inhibition; details: 0.3 μM A-485 + 1 nM R1881
Procedure: FIGS. 2A through 2E illustrate that HULLK is an AR-regulated lncRNA. […] LNCaP and C42 cells were transduced with two independent shRNAs to LCK and treated with 0-1 nM R1881. RNA was collected on Day 4 and LCK transcript levels were determined using LCK primers targeting the 3′UTR. […] LNCaP and C42 cells were seeded for 48 hrs, and then, treated with 1 nM R1881 in the presence or absence of 10 μM enzalutamide. RNA was collected 24 hrs after treatment and LCK transcript levels were determined by qPCR using LCK primers targeting the 3′UTR. C4-2, DU145, and PC3 cells were seeded in CSS media for 48 hrs, and then, treated with 1 nM R1881 for 16 hrs. RNA was collected and LCK transcript levels were determined using LCK primers targeting the 3′UTR. […] FIG. 2E illustrates that Brd4 inhibition reduces the hormone induction of HULLK, n=3. LNCaP, C42, or Jurkat cells were seeded for 48 hrs in the appropriate growth media, and then, treated with 1 nM R1881 in the presence or absence of 0.3 μM A-485 or 0.1 μM JQ1. RNA was collected 24 hrs after treatment and LCK transcript levels were determined by qPCR using LCK primers targeting exon 13 or 3′UTR. PSA and TMPRSS2 transcripts were determined to verify the efficacy of p300 and Brd4 inhibition. […]

HULLK = experiment: qPCR of HULLK (LCK 3'UTR / exon 13) transcript levels in response to hormone and AR, p300 or Brd4 inhibition
Procedure: FIGS. 2A through 2E illustrate that HULLK is an AR-regulated lncRNA. […] LNCaP and C42 cells were transduced with two independent shRNAs to LCK and treated with 0-1 nM R1881. RNA was collected on Day 4 and LCK transcript levels were determined using LCK primers targeting the 3′UTR. […] LNCaP and C42 cells were seeded for 48 hrs, and then, treated with 1 nM R1881 in the presence or absence of 10 μM enzalutamide. RNA was collected 24 hrs after treatment and LCK transcript levels were determined by qPCR using LCK primers targeting the 3′UTR. C4-2, DU145, and PC3 cells were seeded in CSS media for 48 hrs, and then, treated with 1 nM R1881 for 16 hrs. RNA was collected and LCK transcript levels were determined using LCK primers targeting the 3′UTR. […] FIG. 2E illustrates that Brd4 inhibition reduces the hormone induction of HULLK, n=3. LNCaP, C42, or Jurkat cells were seeded for 48 hrs in the appropriate growth media, and then, treated with 1 nM R1881 in the presence or absence of 0.3 μM A-485 or 0.1 μM JQ1. RNA was collected 24 hrs after treatment and LCK transcript levels were determined by qPCR using LCK primers targeting exon 13 or 3′UTR. PSA and TMPRSS2 transcripts were determined to verify the efficacy of p300 and Brd4 inhibition.
FIGS. 7A and 7B illustrate the regulation of HULLK by the AR in breast cancer cells. […] LNCaP, MCF7, BT549, and MDA-MD-231 cells were seeded in the appropriate growth media, and whole cell lysates were collected 48 hrs later and blotted for AR21 and ERK1/2. […] MCF7, BT549, and MDA-MB-231 cells were seeded in CSS media for 48 hrs, and then, treated with 1 nM R1881 for 16 hrs. RNA was collected and LCK transcript levels were determined using LCK primers targeting the 3′UTR, n=3.
Cell Culture and Reagents. LNCaP and C4-2 cells (a gift from Dr. L. W. K. Chung) were grown in DMEM:F12 (Invitrogen) with 5% Non-Heat-Inactivated serum (Gemini) and 1% Insulin-Transferrin-Selenium-Ethanolamine (ThermoFisher). CWR22Rv1 (Rv1), VCaP, PC3 (gifts from Drs. Steven Balk, Karen Knudsen, and Chung, respectively), WMPY-1 (ATCC), MCF7, BT549 and MDA-MB-231 (gifts from Dr. Amy Bouton) were grown in DMEM (Invitrogen) with 10% Heat-Inactivated serum. DU145 (a gift from Dr. Chung), PANC1 (a gift from Dr. J. Thomas Parsons), HeLa and Jurkat cells (gifts from Dr. Tim Bender) were grown in RPMI-1640 (Invitrogen) with 10% Heat-Inactivated serum. LHS cells (a gift from Dr. William Hahn) were grown in ProstaLife Epithelial Cell Medium (Lifeline). RWPE-1 (ATCC) cells were grown in Keratinocyte-Serum-Free Media (Invitrogen). For growth and RNA experiments, phenol-red free DMEM:F12 media with 5% Charcoal-Stripped Serum (CSS) (Gemini) was used.
RNA Isolation, qPCR and ddPCR: RNA was collected using TRIzol and quantitated using a NanoDrop 2000 UV-Vis Spectrophotometer (ThermoFisher). cDNA was synthesized using Superscript IV VILO cDNA synthesis kit (Invitrogen). Quantitative real-time PCR (qPCR) was performed as previously described (17,18). Droplet digital PCR (ddPCR) was executed according to the manufacturer's protocol (Bio-Rad).
To assess whether this lncRNA is modulated by hormone, transcript levels of this lncRNA were quantified by qPCR using 3′UTR primers in LNCaP and C4-2 cells transduced in the presence of increasing concentrations of R1881 (FIG. 2A). […] This increase was inhibited in the presence of two independent LCK shRNAs in both cell lines.
This hormone regulation was confirmed by measuring transcript amounts in LNCaP and C4-2 cells treated with vehicle or R1881 in the presence or absence of the anti-androgen enzalutamide (FIG. 2B). As expected, there was an 8-fold and 12-fold R1881-induced increase in LCK 3′UTR transcript levels in LNCaP and C4-2 cells, respectively. […] Androgen deprivation influenced message levels negligibly in LNCaP cells, but decreased transcript amounts of this lncRNA by approximately 2.9-fold in C4-2 cells (FIG. 2B, C4-2 vehicle vs. media). […]

p53 = experiment: Western blot after proteasome inhibition with MG132; details: LNCaP cells; 10 μM MG132
Procedure: (§1) FIGS. 1A to 1D illustrate the discovery of a novel lncRNA in prostate cancer cells. […] LCK protein was immunoprecipitated from 1 mg cell lysate from LNCaP, C4-2, and Jurkat cells cultured in the appropriate growth media for 48 hrs and treated with 1 nM R1881 or starved of hormone for 24 hrs, separated by 10% SDS-PAGE, and immunoblotted with LCK antibodies targeting the amino- and carboxy-terminals. Representative blots are shown, n=3. […] LNCaP cells were seeded and treated with 10 μM MG132 in the presence or absence of R1881 for the indicated timepoints. Cell lysates were blotted for LCK (c-terminal), LCK (n-terminal), p53, ERK1/2, Ran, and Histone H3. Representative blots are shown, n=3. Representative gel is shown, n=3. LNCaP cells were grown in the absence or presence of 1 nM R1881 for 24 hrs. RNA was collected using the Qiagen RNeasy kit. […]
(§2) To determine whether the lack of LCK expression was due to proteasomal degradation, LCK protein levels were examined in the presence of the proteasome inhibitor MG132 (FIG. 18). […] Furthermore, no truncated forms of LCK were detected when the whole western blot membrane was probed from 75 kD to 10 kD with either c- or n-terminal LCK antibodies. […] Therefore, a ncRNA may play a role in the growth effects measured in the kinome screen.

LCK protein = experiment: Western blot for LCK protein after proteasome inhibition with MG132; details: LNCaP cells treated with FBS, CSS, or 1 nM R1881; 10 μM MG132; any timepoint
Procedure: as §1, §2

AR = AR protein and message levels 48 hrs after HULLK knockdown or overexpression; details: LNCaP and C4-2 cells; 48 hrs after transduction
Procedure: LNCaP and C4-2 cells were transduced with vector, shLCK (n-term), or shLCK (c-term) in the appropriate growth media, and whole cell lysates were collected 48 hrs later and blotted for AR21 and ERK1/2, n=3. […] LNCaP and C4-2 cells were transduced with vector or HULLK in the appropriate growth media, and whole cell lysates were collected 48 hrs later and blotted for AR21 and α-tubulin, n=3. RNA was collected and AR transcript levels were determined using AR primers targeting the DNA binding domain, n=3.
Conversely, studies were conducted to determine whether HULLK modulates AR expression. LNCaP and C4-2 cells were transduced with vector, HULLK, or shRNAs targeting LCK (n-term) (FL-LCK) or LCK (c-term) (HULLK), and AR protein and message levels were examined 48 hrs after transduction.

[2] = tested on: LNCaP, C4-2, and Rv1 cells; experiment: CyQuant growth assay 7 days after viral transduction; details: day 7; for effect on cell growth: absence of hormone, Rv1 cells
Description: FIG. 5A illustrates the gene structure of LCK and location of each shRNA targeting LCK. MISSION shRNAs targeting human LCK (NM_005356) and the pLKO vector control were purchased from ThermoFisher. Each shRNA was validated for efficiency of LCK or HULLK knockdown in Jurkat and PCa cells by qPCR. (C) The results of CyQuant Assay measuring DNA content as a surrogate for cell number 7 days after shRNA transduction is shown in FIG. 5C. Growth was compared to untreated empty vector control and the values were averaged across biological replicates. Error bars represent standard error of the mean. The relative effect of four independent shRNAs on cell growth in LNCaP, C42, and Rv1 cells in the absence or presence of 0.05 nM R1881, n=3. FIG. 5D plots the data for the relative effect of HULLK overexpression on cell growth in LNCaP, C42, and Rv1 cells in the absence or presence of 0.05 nM R1881, n=3. Statistical analysis was performed using ANOVA and Tukey test.
CyQuant Growth Assays: Assay was performed as previously described (18). Briefly, shRNA or pLKO control virus was added to 1 μg/ml fibronectin-coated 96 well plates. Cells were plated in RPMI-1640 plus 5% CSS with vehicle, 0-0.05 nM R1881, and/or 10 μM Enzalutamide (Selleck Chemicals). Quantification was performed on Day 7 using a BioTek Synergy 2 plate reader.
To explore the functional role of HULLK in PCa, the effects of HULLK knockdown on PCa cell growth was examined. LNCaP, C4-2, and Rv1 cells were transduced with lentiviral particles expressing four independent shRNAs specific for LCK or pLKO empty vector control in the presence or absence of 0.05 nM R1881. Two shRNAs were targeting the carboxy-terminal of LCK (shLCK-3 and shLCK-4) and should decrease HULLK levels; and two shRNAs were directed toward the amino-terminal (shLCK-1 and shLCK-2) and should not affect HULLK expression (FIG. 5A). […] As a control, all four shRNAs efficiently knocked LCK down 60-90% in Jurkat cells. Seven days following viral transduction, cellular growth was measured using CyQuant, which uses DNA content as a surrogate for cell number. In the absence of hormone, the four shRNAs had no dramatic effects on growth in LNCaP or C4-2 cells (FIG. 5C).
The complement experiment of evaluating the effects of overexpressing HULLK on cell growth was also performed. LNCaP, C4-2, and Rv1 cells were transduced with lentivirus expressing either vector or HULLK constructs in the presence or absence of 0.05 nM R1881, and proliferation was calculated seven days following viral transduction.

In the case of `CNC(=O)Nc1ccc2c(c1)CC[C@@]21OC(=O)N(CC(=O)N(Cc2ccc(F)cc2)[C@@H](C)C(F)(F)F)C1=O` [A-485], the “PSA and TMPRSS2 message in the presence of hormone and p300 inhibitor” value [1] is reported as “sufficiently blocking its target”, the “effect on hormone-induced increase in HULLK transcript levels” value (HULLK; 0.3 μM A-485 + 1 nM R1881, 24 hrs) is reported as “significantly opposed the hormone-induced increase” and the “effect on HULLK expression, inhibitor alone” value (HULLK; 0.3 μM A-485 without R1881, LNCaP, C4-2, Jurkat cells) is reported as “negligible effects”.

`CNC(=O)c1ccc(N2C(=S)N(c3ccc(C#N)c(C(F)(F)F)c3)C(=O)C2(C)C)cc1F` [Enzalutamide] was tested, and the “effect on hormone-mediated increase in LCK 3'UTR transcript (HULLK)” value (HULLK; LNCaP and C4-2 cells, 1 nM R1881 + 10 μM enzalutamide, 24 hrs) was “blocked the hormone-mediated increase; also recorded: blocks the androgen-induced expression of HULLK”.

With `Cc1sc2c(c1C)C(c1ccc(Cl)cc1)=N[C@@H](CC(=O)OC(C)(C)C)c1nnc(C)n1-2` [JQ1] the “HULLK expression in the presence of hormone and JQ1 compared to hormone alone” value (HULLK; 0.1 μM JQ1 + 1 nM R1881, 24 hrs) was “significantly decreased”.

For `CC(C)C[C@@H](C=O)NC(=O)[C@H](CC(C)C)NC(=O)[C@H](CC(C)C)NC(=O)OCc1ccccc1` [MG132] (Cbz-Leu-Leu-Leu-aldehyde), the p53 protein level (p53) was “elevated” and the LCK protein detection (LCK protein) was “still not observed”.

“HULLK: Hormone Upregulated lncRNA within LCK, overexpressed from lentiviral expression vector PLX301” was tested, and the “AR expression after overexpression of HULLK” value (AR) was “not notably altered”, the “proliferation of HULLK-overexpressing cells compared to vector control cells” value ([2]; 0.05 nM R1881, LNCaP, C4-2, and Rv1 cells) was “significantly increased proliferation” and the “growth of HULLK-overexpressing cells versus vector-expressing cells” value ([2]; androgen-deprived media, LNCaP, C4-2, and Rv1 cells) was “did not provide a growth advantage”.

“shLCK-3: shRNA targeting the carboxy-terminal of LCK (HULLK), nucleotide sequence SEQ ID NO: 25 (CCGGGGGATCCTGCTGACGGAAATTCTCGAGAATTTCCGTCAGCAGGATCCCTTTTTG)” was tested, and the “effect on cell growth” value [2] was “statistically significant decrease”.

For “shLCK-4: shRNA targeting the carboxy-terminal of LCK (HULLK), nucleotide sequence SEQ ID NO: 26 (CCGGTCACATGGCCTATGCACATATCTCGAGATATGTGCATAGGCCATGTGATTTTTG)”, the “effect on cell growth” value [2] was “statistically significant decrease”.

— patent US12319967B2, “Methods and compositions for diagnosing and treating prostate cancer based on long noncoding RNA overlapping the LCK gene that regulates prostate cancer cell growth” (University of Virginia Patent Foundation, priority 2019, dated 2025)
